Results on four compounds are retold here after patent US20250205342A1, “IRAK DEGRADERS AND USES THEREOF” (Kymera Therapeutics, Inc., priority 2022, published 2025).

For test [1], the target named is T1, IRAK4 (Homo sapiens, UniProt Q9NWZ3).
T1 sequence (Q9NWZ3 1-460): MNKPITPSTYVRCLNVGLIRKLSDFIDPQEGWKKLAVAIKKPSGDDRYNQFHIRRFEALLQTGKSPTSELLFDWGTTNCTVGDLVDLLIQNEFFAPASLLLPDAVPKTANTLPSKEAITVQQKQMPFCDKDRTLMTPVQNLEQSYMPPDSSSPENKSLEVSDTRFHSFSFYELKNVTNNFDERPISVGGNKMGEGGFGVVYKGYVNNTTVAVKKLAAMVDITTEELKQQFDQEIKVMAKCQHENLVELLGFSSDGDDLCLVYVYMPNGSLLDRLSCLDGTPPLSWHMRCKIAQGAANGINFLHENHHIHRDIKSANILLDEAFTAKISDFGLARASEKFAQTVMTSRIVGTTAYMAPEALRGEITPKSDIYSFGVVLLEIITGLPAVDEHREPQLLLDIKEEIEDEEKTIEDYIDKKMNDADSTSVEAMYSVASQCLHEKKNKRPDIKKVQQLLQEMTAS
Nature of the test: hPBMC IRAK4 degradation flow assay (monocytes). In kind it is cell-based. Further details: endogenous in cells; host or cells: human PBMCs (monocytes, CD14 positive gate). The settings on record: CD14 positive monocytes, 20 h, read-out: hPBMC monocyte DC50 at 20 h. The method, boiled down: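 Thawed human PBMCs treated 20 h (or 4 h) at 37° C. with 10-point 5-fold compound dilutions, 0.1% DMSO, then fixed, methanol-permeabilized and stained for IRAK4 and lineage markers by flow, with monocytes gated CD14+. IRAK4 MFI normalized to DMSO and 10 µM control; DC50 and max degradation from 4-parameter logistic fit.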

The target in test [2] is T1, IRAK4. Nature of the test: IRAK4 degradation in OCI-LY10 (MSD, Meso Scale Discovery). The conditions noted are these: OCI-LY10 cells, 24 h. The test is classed as cell-based. On the set-up: endogenous in cells; host or cells: OCI-LY10. In short, it runs like this:
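OCI-LY10 cells (300,000/well) were treated with an 8-point 1:3 series (top 1 to 10 μM) for 4 to 24 h at 37 °C. IRAK4 in RIPA lysates was quantified by MSD sandwich immunoassay with two anti-IRAK4 antibodies. DC50 was fitted with a three-parameter logistic equation.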

For the compound `CC(C)(O)c1cc2nn([C@H]3CC[C@H](CNCCCCCCc4cc(C(=O)Nc5ccc(=O)n(CC(=O)O)c5)cc(-c5cccnc5)c4)CC3)cc2cc1NC(=O)c1cccc(C(F)(F)F)n1` [Compound I-96], the DC50 in test [1] and in test [2] was greater than 10 µM throughout.
For `CCOC(=O)Cn1cc(NC(=O)c2cccc(-c3cncc(CCCCCCNC[C@H]4CC[C@H](n5cc6cc(NC(=O)c7cccc(C(F)(F)F)n7)c(C(C)(C)O)cc6n5)CC4)c3)c2)ccc1=O` [Compound I-97], the 50% degradation concentration (DC50) is greater than 10 µM in test [1] and 1 to 10 µM in test [2].
Taken in the same sequence, the figures for `CCOC(=O)Cn1cc(NC(=O)c2cc(CCCCCCNC[C@H]3CC[C@H](n4cc(NC(=O)c5cnn6ccc(N7C[C@H]8C[C@@H]7CO8)nc56)c(C(F)F)n4)CC3)cc(-c3cccnc3)c2)ccc1=O` [Compound I-98] were greater than 10 µM and greater than 10 µM.
In the same order, the values of `CCOC(=O)Cn1cc(NC(=O)c2cccc(-c3cncc(CCCCCCNC[C@H]4CC[C@H](n5cc(NC(=O)c6cnn7ccc(N8C[C@H]9C[C@@H]8CO9)nc67)c(C(F)F)n5)CC4)c3)c2)ccc1=O` [Compound I-99] are greater than 10 µM and greater than 10 µM.
